Measurements taken from article PMC12260505, “First-in-Human Phase I/IIa Study of the First-in-Class CDK2/4/6 Inhibitor PF-06873600 Alone or with Endocrine Therapy in Patients with Breast Cancer” (Clinical Cancer Research, 2025).

Test: Adverse events graded by NCI CTCAE version 4.03, phase I/IIa study
Assay type: in vivo
Protocol: Part 1 included adult patients with HR^+/HER2^− advanced breast cancer or mBC (third- or fourth-line setting), locally recurrent/advanced or metastatic TNBC, or advanced platinum-resistant epithelial ovarian cancer/fallopian tube cancer/primary peritoneal cancer who received oral PF-06873600 at doses of 1 to 50 mg twice daily or oral PF-06873600 plus ET (letrozole or fulvestrant). Primary endpoints for part 1 dose escalation determined safety and tolerability to define dose-limiting toxicities (DLT), estimate the maximum tolerated dose, and select the recommended dose for expansion (RDE). Safety endpoints included adverse events (AE) characterized by type, frequency, severity [as graded by NCI Common Terminology Criteria for Adverse Events (CTCAE) version 4.03], timing, seriousness, and relationship to study therapy. Laboratory abnormalities were characterized by type, frequency, severity (as graded by NCI CTCAE version 4.03), timing, vital sign abnormalities, and heart rate–corrected QT interval (e.g., QTcF). Secondary endpoints included PK, preliminary antitumor activity as assessed using RECIST version 1.1, time-to-event endpoints including objective response rate (ORR), duration of response (DoR), progression-free survival (PFS), time to progression (TTP), and modulation of tumor CDK biomarkers [phosphorylated Rb (pRb), Ki67]. Exploratory endpoints included molecular profiling of tumor and ctDNA and the relationship to clinical outcome.
AEs were graded by NCI CTCAE version 4.03.

[1] = Part 2C 25 mg BID IR + Fulvestrant, N = 28
[2] = parts 1 and 2, N = 151, all cycles

C[C@@]1(O)CCC[C@H]1n1c(=O)c(C(F)F)cc2cnc(NC3CCN(S(C)(=O)=O)CC3)nc21 [PF-06873600]
Treatment-related TEAE, Headache, Grade 3/4 [1]: 0 n (%)
Treatment-related TEAE, Headache, Grade 5 [1]: 0 n (%)
Treatment-related TEAE, Headache, Total [1]: 9 (32.1) n (%)
Treatment-related TEAE, Leukopenia, Grade 1 [1]: 3 (10.7) n (%)
Treatment-related TEAE, Leukopenia, Grade 2 [1]: 3 (10.7) n (%)
Treatment-related TEAE, Leukopenia, Grade 3/4 [1]: 0 n (%)
Treatment-related TEAE, Leukopenia, Grade 5 [1]: 0 n (%)
Treatment-related TEAE, Leukopenia, Total [1]: 6 (21.4) n (%)
Treatment-related TEAE, Nausea, Grade 1 [1]: 12 (42.9 ) n (%)
Treatment-related TEAE, Nausea, Grade 2 [1]: 7 (25.0) n (%)
Treatment-related TEAE, Nausea, Grade 3/4 [1]: 0 n (%)
Treatment-related TEAE, Nausea, Grade 5 [1]: 0 n (%)
Treatment-related TEAE, Nausea, Total [1]: 19 (67.9 ) n (%)
Treatment-related TEAE, Neutropenia, Grade 1 [1]: 1 (3.6) n (%)
Treatment-related TEAE, Neutropenia, Grade 2 [1]: 2 (7.1) n (%)
Treatment-related TEAE, Neutropenia, Grade 3/4 [1]: 6 (21.4) n (%)
Treatment-related TEAE, Neutropenia, Grade 5 [1]: 0 n (%)
Treatment-related TEAE, Neutropenia, Total [1]: 9 (32.1) n (%)
Treatment-related TEAE, Thrombocytopenia, Grade 1 [1]: 1 (3.6) n (%)
Treatment-related TEAE, Thrombocytopenia, Grade 2 [1]: 0 n (%)
Treatment-related TEAE, Thrombocytopenia, Grade 3/4 [1]: 1 (3.6) n (%)
Treatment-related TEAE, Thrombocytopenia, Grade 5 [1]: 0 n (%)
Treatment-related TEAE, Thrombocytopenia, Total [1]: 2 (7.1) n (%)
Treatment-related TEAE, Vomiting, Grade 1 [1]: 8 (28.6) n (%)
Treatment-related TEAE, Vomiting, Grade 2 [1]: 4 (14.3) n (%)
Treatment-related TEAE, Vomiting, Grade 3/4 [1]: 0 n (%)
Treatment-related TEAE, Vomiting, Grade 5 [1]: 0 n (%)
Treatment-related TEAE, Vomiting, Total [1]: 12 (42.9 ) n (%)
All-causality SAE, abdominal pain (parts 1 and 2, 151 patients): 2.0%
All-causality SAE, colitis (parts 1 and 2, 151 patients): 2.0%
All-causality SAE, febrile neutropenia (parts 1 and 2, 151 patients): 3.3%
All-causality SAE, hypotension (parts 1 and 2, 151 patients): 2.0%
All-causality TEAE, alopecia (parts 1 and 2, 151 patients): 28.5%
All-causality TEAE, anemia (parts 1 and 2, 151 patients): 44.4%
All-causality TEAE, constipation (parts 1 and 2, 151 patients): 25.2%
All-causality TEAE, diarrhea (parts 1 and 2, 151 patients): 22.5%
All-causality TEAE, fatigue (parts 1 and 2, 151 patients): 43.7%
All-causality TEAE, headache (parts 1 and 2, 151 patients): 29.1%
All-causality TEAE, leukopenia (parts 1 and 2, 151 patients): 25.8%
All-causality TEAE, nausea (parts 1 and 2, 151 patients): 62.9%
All-causality TEAE, neutropenia (parts 1 and 2, 151 patients): 37.7%
All-causality TEAE, vomiting (parts 1 and 2, 151 patients): 35.8%
All-causality TEAEs, any, patients (parts 1 and 2, 151 patients): 97.4%
All-causality serious adverse events (SAE), patients (parts 1 and 2, 151 patients): 22.5%
Grade 3 all-causality TEAEs, patients (parts 1 and 2, 151 patients): 34.4%
Grade 3 and grade 4 all-causality TEAEs, patients (parts 1 and 2, 151 patients): 45.7%
Grade 3 treatment-related TEAEs, patients (parts 1 and 2, 151 patients): 25.8%
Grade 4 all-causality TEAEs, patients (parts 1 and 2, 151 patients): 11.3%
Grade 4 treatment-related TEAEs, patients (parts 1 and 2, 151 patients): 9.9%
TEAE leading to dose interruptions, anemia (parts 1 and 2, 151 patients): 11.3%
TEAE leading to dose interruptions, nausea (parts 1 and 2, 151 patients): 11.3%
TEAE leading to dose interruptions, neutropenia (parts 1 and 2, 151 patients): 17.9%
TEAE leading to dose reductions, fatigue (parts 1 and 2, 151 patients): 5.3%
TEAE leading to dose reductions, nausea (parts 1 and 2, 151 patients): 4.6%
TEAE leading to dose reductions, neutropenia (parts 1 and 2, 151 patients): 6.0%
TEAEs leading to discontinuation, patients (parts 1 and 2, 151 patients): 7.3%
TEAEs leading to dose interruptions, patients (parts 1 and 2, 151 patients): 51.7%
TEAEs leading to dose reductions, patients (parts 1 and 2, 151 patients): 21.2%
Treatment-related SAE, colitis (parts 1 and 2, 151 patients): 1.3%
Treatment-related SAE, febrile neutropenia (parts 1 and 2, 151 patients): 3.3%
Treatment-related SAE, neutropenia (parts 1 and 2, 151 patients): 1.3%
Treatment-related SAE, stomatitis (parts 1 and 2, 151 patients): 1.3%
Treatment-related SAEs, patients (parts 1 and 2, 151 patients): 8.6%
Treatment-related TEAE, Alopecia, Grade 1 [2]: 21 (13.9) n (%)
Treatment-related TEAE, Alopecia, Grade 2 [2]: 21 (13.9) n (%)
Treatment-related TEAE, Alopecia, Grade 3/4 [2]: 0 n (%)
Treatment-related TEAE, Alopecia, Grade 5 [2]: 0 n (%)
Treatment-related TEAE, Alopecia, Total [2]: 42 (27.8) n (%)
Treatment-related TEAE, Anemia, Grade 1 [2]: 13 (8.6) n (%)
Treatment-related TEAE, Anemia, Grade 2 [2]: 28 (18.5) n (%)
Treatment-related TEAE, Anemia, Grade 3/4 [2]: 21 (13.9) n (%)
Treatment-related TEAE, Anemia, Grade 5 [2]: 0 n (%)
Treatment-related TEAE, Anemia, Total [2]: 62 (41.1) n (%)
Treatment-related TEAE, Any AE, Grade 1 [2]: 27 (17.9) n (%)
Treatment-related TEAE, Any AE, Grade 2 [2]: 55 (36.4) n (%)
Treatment-related TEAE, Any AE, Grade 3/4 [2]: 54 (35.8) n (%)
Treatment-related TEAE, Any AE, Grade 5 [2]: 2 (1.3) n (%)
Treatment-related TEAE, Any AE, Total [2]: 138 (91.4) n (%)
Treatment-related TEAE, Constipation, Grade 1 [2]: 13 (8.6) n (%)
Treatment-related TEAE, Constipation, Grade 2 [2]: 10 (6.6) n (%)
Treatment-related TEAE, Constipation, Grade 3/4 [2]: 0 n (%)
Treatment-related TEAE, Constipation, Grade 5 [2]: 0 n (%)
Treatment-related TEAE, Constipation, Total [2]: 23 (15.2) n (%)
Treatment-related TEAE, Diarrhea, Grade 1 [2]: 21 (13.9) n (%)
Treatment-related TEAE, Diarrhea, Grade 2 [2]: 4 (2.6) n (%)
Treatment-related TEAE, Diarrhea, Grade 3/4 [2]: 2 (1.3) n (%)
Treatment-related TEAE, Diarrhea, Grade 5 [2]: 0 n (%)
Treatment-related TEAE, Diarrhea, Total [2]: 27 (17.9) n (%)
Treatment-related TEAE, Fatigue, Grade 1 [2]: 23 (15.2) n (%)
Treatment-related TEAE, Fatigue, Grade 2 [2]: 25 (16.6) n (%)
Treatment-related TEAE, Fatigue, Grade 3/4 [2]: 12 (7.9) n (%)
Treatment-related TEAE, Fatigue, Grade 5 [2]: 0 n (%)
Treatment-related TEAE, Fatigue, Total [2]: 60 (39.7) n (%)
Treatment-related TEAE, Headache, Grade 1 [2]: 28 (18.5) n (%)
Treatment-related TEAE, Headache, Grade 2 [2]: 4 (2.6) n (%)
Treatment-related TEAE, Headache, Grade 3/4 [2]: 0 n (%)
Treatment-related TEAE, Headache, Grade 5 [2]: 0 n (%)
Treatment-related TEAE, Headache, Total [2]: 32 (21.2) n (%)
Treatment-related TEAE, Leukopenia, Grade 1 [2]: 5 (3.3) n (%)
Treatment-related TEAE, Leukopenia, Grade 2 [2]: 23 (15.2) n (%)
Treatment-related TEAE, Leukopenia, Grade 3/4 [2]: 9 (6.0) n (%)
Treatment-related TEAE, Leukopenia, Grade 5 [2]: 0 n (%)
Treatment-related TEAE, Leukopenia, Total [2]: 37 (24.5) n (%)
Treatment-related TEAE, Nausea, Grade 1 [2]: 65 (43.0) n (%)
Treatment-related TEAE, Nausea, Grade 2 [2]: 26 (17.2) n (%)
Treatment-related TEAE, Nausea, Grade 3/4 [2]: 1 (0.7) n (%)
Treatment-related TEAE, Nausea, Grade 5 [2]: 0 n (%)
Treatment-related TEAE, Nausea, Total [2]: 92 (60.9) n (%)
Treatment-related TEAE, Neutropenia, Grade 1 [2]: 6 (4.0) n (%)
Treatment-related TEAE, Neutropenia, Grade 2 [2]: 19 (12.6) n (%)
Treatment-related TEAE, Neutropenia, Grade 3/4 [2]: 31 (20.5) n (%)
Treatment-related TEAE, Neutropenia, Grade 5 [2]: 0 n (%)
Treatment-related TEAE, Neutropenia, Total [2]: 56 (37.1) n (%)
Treatment-related TEAE, Thrombocytopenia, Grade 1 [2]: 16 (10.6) n (%)
Treatment-related TEAE, Thrombocytopenia, Grade 2 [2]: 4 (2.6) n (%)
Treatment-related TEAE, Thrombocytopenia, Grade 3/4 [2]: 9 (6.0) n (%)
Treatment-related TEAE, Thrombocytopenia, Grade 5 [2]: 0 n (%)
Treatment-related TEAE, Thrombocytopenia, Total [2]: 29 (19.2) n (%)
Treatment-related TEAE, Vomiting, Grade 1 [2]: 38 (25.2) n (%)
Treatment-related TEAE, Vomiting, Grade 2 [2]: 12 (7.9) n (%)
Treatment-related TEAE, Vomiting, Grade 3/4 [2]: 1 (0.7) n (%)
Treatment-related TEAE, Vomiting, Grade 5 [2]: 0 n (%)
Treatment-related TEAE, Vomiting, Total [2]: 51 (33.8) n (%)
